Columns and labels:
[1] = biological target: T1, Avi-KRAS G12C (1-169) GppNHp/RAF1 RBD-3×FLAG (52-151) (Homo sapiens, UniProt P01116, G12C); experiment: KRAS G12C-effector (RAF1 RBD) protein:protein interaction HTRF disruption assay; type: biochemical; details: PPI HTRF
T1 construct: Avi-KRAS G12C (1-169) GppNHp
Experimental: A protein:protein interaction (PPI) Homogeneous Time Resolved Fluorescence (HTRF) assay was used to determine the effectiveness of compounds of the present disclosure in disrupting KRAS G12C protein and effector (RAF1) binding.
The HTRF assay used the following reagents and proteins: 50 nM Avi-KRAS G12C (1-169) GppNHp/RAF1 RBD-3×FLAG (52-151); 75 nM Avi-RAF1 RBD-3×FLAG; Assay Buffer: 50 mM Tris pH 7.5, 100 mM NaCl, 5 mM MgCl2, 0.1% BSA, 0.01% Tween 20, 10% DMSO; Bead Buffer: 50 mM Tris pH 7.5, 0.01% Tween 20; Assay volume: 20 μL (384 well plate-low volume format); and Compound titration: 30-0.02 μM, 3× dilution series.
The HTRF assay employed the following protocol:
Compounds were dispensed in assay plate (384-well, Grenier Bione #784075) using Echo (model 555) with dose response settings: 200 nL final volume, titration from 100 μM as a 10-point dilution series. KRAS proteins were prepared in assay buffer, and dispensed on plates, 5 μL per well, then incubated for 1 h at room temperature, with 700 rpm shaking. RAF1 RBD were prepared in assay buffer, dispensed onto plates, 5 μL per well, and then incubated for 1 h at room temperature, with 700 rpm shaking. Reagent mix was then prepared and dispensed on plates, 10 μL per well, and then incubated for 1 h at room temperature, with 700 rpm shaking.
Plates were analyzed on an Envision plate reader using the following setting: Excitation 320 nm, Bandwidth 75 nm, Emission 615 nm, Bandwidth 85 nm; Gain 100%; Flashes 100; Lag 60 μs. Data was reported as percentage of activity, with DMSO as 100%. Data was plotted and analyzed using Prism 8.

[2] = biological target: T2, GDP-loaded KRAS4b (amino acids 1-169) G12C/C118S (Homo sapiens, UniProt P01116, C118S/G12C); experiment: MALDI-TOF MS covalent Cys12 modification, GDP-loaded KRAS G12C; type: binding; details: 15 minutes reaction time, 1 μM protein, 1:2.5 protein to compound ratio
T2 construct: KRAS4b (amino acids 1-169) G12C/C118S protein; made in house
Experimental: (§1) MALDI-TOF MS analysis was performed using 1 μM protein target, and 1:2.5 protein to compound ratio was used.
(§2) Reaction: 1 μM of GppNHp, GTP, or GDP-loaded KRAS4b (amino acids 1-169) G12C/C118S protein (produced in-house by Protein Expression Laboratory, FNLCR/Leidos Biomed) in 20 mM 4-(2-hydroxyethyl)-1-piperazineethanesulfonic acid (HEPES) buffer containing 150 mM NaCl, 1 mM MgCl2, pH 7.3 was prepared freshly before assay. Ten-μL aliquots of protein were dispensed onto low volume 384-well plate, then 375 nL DMSO, and 25 nL of tested compounds from 5 mM DMSO stocks were added to appropriate wells using ECHO 555 acoustic liquid handler (Labcyte Inc.). For each reaction/assay, three blanks were prepared by mixing 10 μL of protein solution with 400 nL DMSO. The contents of the wells were carefully mixed by aspiration, and then each plate was sealed with an adhesive cover, centrifuged at 2000 g for 1 minute, and kept in the dark at room temperature until 5 min, 15 min, 30 min, 2 h, or 6 h collections.
(§3) Target pretreatment: Before each assay MALDI target (Bruker MPT 384 ground steel BC) was pre-treated by pipetting on each spot 0.75 μL of saturated sinapinic acid in acetonitrile (ACN).
(§4) Sample preparation: At collection time point, 2 μL of reaction mixtures were pipetted out into 20 μL MALDI matrix solution (saturated solution of sinapinic acid in 1:1 ACN:water solution containing 0.75% trifluoroacetic acid (TFA)) deposited on 384 well polypropylene plate. Resulting solution was mixed by aspiration, centrifuged at 2000 g for 1 minute, then 1 μL aliquots were dispensed on pre-treated MALDI target using Beckman Coulter Biomek FX^P 96/384-Span-8 Laboratory Automation Workstation. Finally, the MALDI target was dried under mild vacuum to produce spots with fine crystalline structure.
(§5) Measurements: MALDI-TOF measurements were performed on a Bruker Daltonics rapifleX Tissuetyper TOF-TOF mass spectrometer using linear mode and mass range from 18.6 to 21.6 kDa. Detector gain was set to 3.3× (483 V), sample rate to 5 GS/s, real time smoothing to medium (175 MHz), laser smart beam pattern was set to: “MS Thin Layer M5”, and the laser frequency was 10000 Hz. Spectra were automatically collected using custom AutoXecute method. Laser power was auto adjusted using fuzzy control. The peak selection range was set to be between 19000 and 21500 Da. Peak evaluation uses half width parameter set to be smaller than 40 Da for processed spectrograms (centroid peak detection: smoothed by SavitzkyGolay algorithm using 7 m/z width and 2 cycles; baseline was subtracted using median algorithm with flatness 1 and median level 0.01). Fuzzy control used Proteins/Oligonucleotides protocol with minimum half width 1/10 times above threshold. Up to 40000 satisfactory shots were collected in 10000 shot steps. Dynamic termination was implemented to finish data collection when peak signal/noise ratio reached a value of 50.
(§6) Spectra processing: Spectra were smoothed by SavitzkyGolay algorithm using 7 m/z width and three cycles. Centroid peak detection algorithm was used with signal to noise threshold set to 6, relative intensity threshold 4%, peak width 10 m/z and median baseline subtraction using flatness of 1 and median level of 0.01. Peak intensity and area under the peak were evaluated and recorded for all peaks between 19,300 Da and 21,550 Da.
(§7) Calculation of percent modification: Percent modification was calculated as a ratio of peak height for protein modified by compound to sum of peak height of remaining protein plus peak height for protein modified by compound. If multiple modifications were observed each was calculated as a ratio of peak height for given modification versus sum of peak heights for all observed protein species. Data reported in Table 5 are from the 15 minutes reaction time point.

[3] = tested on: pERK in NCI-H358 cells; experiment: Cell-based pERK HTRF assay; details: Homo sapiens, 0.5 h, 30 min incubation
Experimental: pERK HTRF assays (Perkin Elmer) were used to determine the effectiveness of compounds of the present disclosure in disrupting KRAS G12C protein/effector signaling in cells.
On Day 1, cells (NCI-H358) were seeded into 96-well plates at 4×10^4 cells/well in complete growth media (RPMI, 10% FBS).
On Day 2, cells were treated with compounds at 0.25% DMSO. The source plate was created with compounds diluted in media at 5-fold the final assay concentration. The compounds were run in a 9-point concentration curve starting at 75 μM, with a 3-fold dilution between concentrations. 20 μL was transferred onto the cell plates (final volume in wells was 100 μL). Plates were harvested after 30 min incubation by aspirating media and adding kit-supplied 1× supplemented lysis buffer to all wells (75 μL per well). Plates were then placed on a plate shaker and incubated at 850 rpm for an additional 30 min.
Antibody mixture solution was prepared by diluting aliquoted d2 and Eu Cryptate antibodies 1:20 in kit supplied detection buffer, then mixed the diluted antibodies solutions (1:1 v:v). 4 μL of this solution was then added to a 384-well detection plate (Perkin Elmer; 6008230).
Samples were homogenized by pipetting up and down and then transferred (16 μL of cell lysates) from the 96-well cell culture plate to two wells of the HTRF 384-well detection plate containing the antibody solution. Plates were centrifuged (524 g for 1 min) and allowed to incubate between 4 and 24 h at room temperature. Maximum signal is reached after 4 h incubation time and remains stable over a period of 24 hours. Therefore, readings can be made between 4 and 24 h of incubation. Plates were centrifuged again (524 g for 1 min) and analyzed on the EnVision plate reader using the following settings: Excitation 320 nm, Bandwidth 75 nm; Emission 615 nm, Bandwidth 85 nm; Gain 100%; Flashes 100; Lag 60 μs.

[4] = biological target: T3, GppNHp-loaded KRAS4b (amino acids 1-169) G12C/C118S (Homo sapiens, UniProt P01116, C118S/G12C); experiment: MALDI-TOF MS covalent Cys12 modification, GppNHp-loaded KRAS G12C; type: binding; details: 15 minutes reaction time, 1 μM protein, 1:2.5 protein to compound ratio
T3 construct: KRAS4b (amino acids 1-169) G12C/C118S protein; made in house
Experimental: as §1, §2, §3, §4, §5, §6, §7

[5] = biological target: T4, GTP-loaded KRAS4b (amino acids 1-169) G12C/C118S (Homo sapiens, UniProt P01116, C118S/G12C); experiment: MALDI-TOF MS covalent Cys12 modification, GTP-loaded KRAS G12C; type: binding; details: 15 minutes reaction time, 1 μM protein, 1:2.5 protein to compound ratio
T4 construct: KRAS4b (amino acids 1-169) G12C/C118S protein; made in house
Experimental: as §1, §2, §3, §4, §5, §6, §7

C=CC(=O)N1CC[C@@H](N(C)c2nc(OC[C@@H]3CC4(CC4)CN3C)nc3c(F)c(-c4ccc(F)c5sc(N)c(C#N)c45)ncc23)[C@H]1COC [Compound 21]
IC50 [1]: ≤ 500 nM

C=CC(=O)N1CC[C@@H](N(C)c2nc(OC[C@@]34CCCN3C[C@H](F)C4)nc3c(F)c(-c4ccc(F)c5sc(N)nc45)ncc23)C1 [Compound 4]
GDP-KRAS G12C percent of modification [2]: A (percent of modification ≥70%)
IC50 [3]: > 1000 nM
GppNHp-KRAS G12C percent of modification [4]: A (percent of modification ≥70%)
IC50 [1]: ≤ 500 nM

C=CC(=O)N1CCC(N(C)c2nc(OC[C@@H]3CC4(CC4)CN3C)nc3c(F)c(-c4ccc(F)c5sc(N)c(C#N)c45)ncc23)[C@H]1C (stereo partly drawn) [Compound 24]
GTP-KRAS G12C percent of modification [5]: A (percent of modification ≥70%)
GDP-KRAS G12C percent of modification [2]: A (percent of modification ≥70%)
IC50 [3]: 100 to 1000 nM
GppNHp-KRAS G12C percent of modification [4]: A (percent of modification ≥70%)

C=CC(=O)N1CCC(N(C)c2nc(OC[C@@H]3CC4(CC4)CN3C)nc3c(F)c(-c4ccc(F)c5sc(N)c(C#N)c45)ncc23)[C@H]1COC (stereo partly drawn) [Compound 21]
GTP-KRAS G12C percent of modification [5]: A (percent of modification ≥70%)
GDP-KRAS G12C percent of modification [2]: A (percent of modification ≥70%)
IC50 [3]: 100 to 1000 nM
GppNHp-KRAS G12C percent of modification [4]: A (percent of modification ≥70%)

C=CC(=O)N1CC[C@@H](N(C)c2nc(OC[C@@H]3CC4(CC4)CN3C)nc3c(F)c(-c4ccc(F)c5sc(N)c(C#N)c45)ncc23)[C@H]1C [Compound 24]
IC50 [1]: ≤ 500 nM

C=CC(=O)N1CC[C@@H](N(C)c2nc(OC)nc3c(F)c(-c4ccc(F)c5sc(N)c(C#N)c45)ncc23)[C@H]1C [Compound 32]
IC50 [1]: 5000 to 20000 nM

C=CC(=O)N1CCC(N(C)c2nc(OC[C@@H]3CCCN3C)nc3c(F)c(-c4ccc(F)c5sc(N)c(C#N)c45)ncc23)[C@H]1C (stereo partly drawn) [Compound 22]
GTP-KRAS G12C percent of modification [5]: A (percent of modification ≥70%)
GDP-KRAS G12C percent of modification [2]: A (percent of modification ≥70%)
IC50 [3]: 100 to 1000 nM
GppNHp-KRAS G12C percent of modification [4]: A (percent of modification ≥70%)

C=CC(=O)N1CC[C@@H](N(C)c2nc(OC[C@@H]3CCCN3C)nc3c(F)c(-c4ccc(F)c5sc(N)c(C#N)c45)ncc23)[C@H]1COC [Compound 26]
IC50 [1]: ≤ 500 nM

C=CC(=O)N1CC[C@@H](N(C)c2ncnc3c(F)c(-c4ccc(F)c5sc(N)c(C#N)c45)ncc23)[C@H]1C [Compound 36]
IC50 [1]: 5000 to 20000 nM
